Literature values in patent publication US20230355939A1, “DEVICES AND METHODS FOR CONTINUOUS EXTRUSION OF A DRUG INTO THE MOUTH” (SynAgile Corporation, priority 2020, published 2023).

Tests used:
[1] = for Approximate Pressure (vapor pressure): at 37° C.

SMILES | Approximate Pressure (vapor pressure) [1] | vapor pressure ([1]; at about 23 ± 3° C.) | solubility
FC(C(F)(F)F)C(F)(F)F [1,1,1,2,3,3,3-hepta-fluoropropane] | ~6.4 bars |  | 
FCC(F)(F)F [1,1,1,2-tetrafluoroethane] | ~9.3 bars | about 5 bars | 
FC(F)(F)CC(F)(F)F [1,1,1,3,3,3 hexafluoropropane] | ~4.0 bars |  | 
FCCF [1,2-difluoroethane] | ~1.9 bars |  | 
CCCCF [1-fluorobutane] | ~1.3 bars |  | 
CCCF [1-fluoropropane] | ~4.1 bars |  | 
CC=CC [2-butene] | ~3.2 bars |  | 
CC(C)F [2-fluoropropane] | ~5 bars |  | 
N[C@@H](Cc1ccc(O)c(O)c1)C(=O)O [LD, levodopa] |  |  | about 50 mg/mL
CCCC [butane] | ~3.5 bars |  | 
CCOCC [diethyl ether] | ~1.1 bars |  | 
CCC(C)C [isopentane] | ~1.4 bars |  | 
CCOC [methyl ethyl ether] | ~3 bars |  | 
CC(C)(C)C [neopentane] | ~2.4 bars |  | 
FC1(F)C(F)(F)C(F)(F)C1(F)F [octafluorocyclobutane] | ~4.3 bars |  | 
CCC [propane] | ~12.8 bars |  | 
C=CC [propene] | ~15.5 bars |  | 
